Measurements: patent US11801242B2, “Compositions and methods for adjuvant cancer therapeutics” (DUKE UNIVERSITY, priority 2018, dated 2023)

Columns and labels:
Rev1^−/− MEF cells = assay: Clonogenic survival assay; format: cell-based, mouse
Procedure: (§1) 300 cells were plated in triplicate in 6-well plates for 24 hours. Cisplatin (cis-diammineplatinum(II) dichloride, Sigma-Aldrich) was added to relevant wells for 24 hours. All plates were incubated at 37° C. for 24 hours. Media were changed the next day and in fresh media RE01 (at 1.5 μM concentration) was added to untreated or cisplatin-treated cells for another 24 hours. Media were changed at the end of these combination treatments, and cells were allowed to recover for 7 days. To stain the resulting colonies, media were aspirated and the fixative (50% methanol and 10% glacial acetic acid) was added for 10 minutes, followed by the addition of 0.02% Coomassie brilliant blue R-250 stain (ThermoFisher) in methanol: acetic acid: water in a ratio of 46.5:7:46.5 (v/v/v). Colonies that stained blue and contained at least 40 cells were counted. Relative cell survival or colony formation was calculated by dividing colony counts from treated samples by the DMSO or untreated controls.
(§2) REV1 was knocked down by transiently transfecting SMARTpool: ON-TARGETplus REV1 siRNA by nucleofection. The siRNA was mixed with the nucleofection buffer Mouse/Rat Hepatocyte Nucleofector™ Kit (Lonza) and electroporated using the Nucleofector™ 2b device. Full-length mouse Rev1 on the pC3 plasmid (Clontech) was nucleofected using the same buffers and device into Rev1^−/− cells to complement the REV1 function.

HT1080 cells [1] = assay: Gapped plasmid TLS assay, cisplatin 1,2-GG lesion; format: cell-based, human; conditions: pre-treatment with RE01 1.5, 3.0 and 15.0 μM for 24 hours
Text: The double stranded plasmid pUC19 with ampicillin resistance was modified to include the oligonucleotide containing cisplatin 1,2-GG lesion on one strand and a gapped region across it. Briefly, the 16mer cisplatin-containing oligonucleotide was flanked by two 21mer regular DNA strands (5′-[…]-3′ (SEQ ID NO: 2) on the 5′ end and 5′-[…]-3′ (SEQ ID NO: 3) on the 3′ end) and elongated to a 58mer lesion-containing single strand DNA. After linearizing the plasmid by restriction endonucleases BstAPI and BspQI (New England Biolabs), the 58mer oligonucleotide was mixed with two scaffolds (5′-TGCATGCGCGCTACGACG-3′ (SEQ ID NO: 4) and 5′-[…]-3′ (SEQ ID NO: 5)) and ligated with the linear pUC19 plasmid to build up a circular plasmid containing a site-specific cisplatin 1,2-GG lesion and a 16-nucleotide gap on the opposite strand.
A competitor gapped plasmid that was three bases longer (started from a 19mer oligonucleotide 5′-CTCTCTAGGCTCACTTCTA-3′ (SEQ ID NO: 6)) than the lesion-containing plasmid was used as the internal control. The cells were pre-treated with either DMSO or RE01 (1.5, 3.0 and 15.0 μM) for 24 hours. […] The gap-filling efficiency by TLS was calculated by dividing the output ratio obtained from HPLC-MS with the input ratio (4:1) and the results were normalized to 100%.

A375 xenograft tumors = assay: Murine xenograft tumor model; format: in vivo, mouse; conditions: co-administration RE01 1.6 mg/kg with cisplatin 1 mg/kg, intratumoral, twice per week for 5 weeks
Procedure: NCRNU-F (nude) female, 6-8-week-old mice were divided into 4 groups (with 6 animals per group) for saline, cisplatin alone, RE01 alone, and cisplatin and RE01 combination treatments. Three million A375 cells mixed in matrigel (Corning) were injected into each flank of the 6 mice to generate 10-12 xenograft tumors per treatment group. After the tumors grew to a total tumor volume of at least 100 mm^3, the drugs (saline, cisplatin alone, RE01 alone, and cisplatin and RE01 combination) with a total volume of 100 μL per injection were injected directly into the tumor. Treatments were carried out twice per week for 5 weeks. On the dosing day, tumors were first measured with calipers, weights were recorded, and then the drugs would be injected directly into the tumors. The mice were sedated with isofluorane prior to measurements and treatments.
The drugs were formulated in 10% EtOH, 40% PEG400, and 50% saline for all the four types of treatments. Cisplatin was injected at a dose of 1 mg/kg per animal and RE01 was administered at a 1.6 mg/kg per animal. In the combination treatment of cisplatin and RE01, the same doses of 1 mg/kg and 1.6 mg/kg respectively per animal were administered. Tumor volumes were calculated by the formula (W^2×L)/2 as described previously.

A375 cells = assay: Clonogenic survival after siRNA knock-down of REV1; format: cell-based, human; conditions: RE01 1.5 μM, cisplatin 1 μM
Procedure: as §1, §2

HT1080 cells [2] = assay: Clonogenic survival after siRNA knock-down of REV1; format: cell-based, human; conditions: RE01 1.5 μM, cisplatin 1 μM
Procedure: as §1, §2

CC(C)CC(=O)c1c(Nc2ccc(Cl)cc2Cl)[nH]c2c(Cl)ccc([N+](=O)[O-])c2c1=O [RE01, 8-chloro-2-((2,4-dichlorophenyl)amino)-3-(3-methylbutanoyl)-5-nitroquinolin-4(1H)-one]
colony forming ability (Rev1^−/− MEF cells; RE01 1.5 μM + cisplatin 0.5 μM vs cisplatin alone): but not in Rev1^−/− MEF cells
RE01 mediated sensitization to cisplatin (Rev1^−/− MEF cells; cells complemented with plasmid encoding REV1, RE01 1.5 μM, cisplatin 1 μM): fully restored
bypass efficiency of 1,2-GG cisplatin DNA adduct (HT1080 cells [1]): suppresses
growth of xenograft human melanomas (A375 xenograft tumors): strikingly suppresses
RE01 mediated sensitization to cisplatin (A375 cells): abolished
RE01 mediated sensitization to cisplatin (HT1080 cells [2]): abolished
